pIC50: −log10 of the molar value.

The test has as its target 15-PGDH/HPGD (Homo sapiens (Human), UniProt P15428). Kind of test: hPGDH inhibitor screening biochemical assay. The following applies: 10 nM 15-PGDH/HPGD, 15 μM PGE2, 0.25 mM NAD; read-out: hPGDH: Average IC50. The protocol: A hydroxyprostaglandin dehydrogenase inhibition screening biochemical assay can be performed to assess the synthesized inhibitors provided herein. Provided herein is an exemplary biochemical assay for hPGDH inhibitor screening.
The in vitro biochemical assay can be performed in white, 384 plates in total 20 μl reaction volume consisting of 10 nM of 15-PGDH/HPGD (R&D System #5660-DH), 15 μM Prostaglandin E2 (Sigma, Cat #P5640-10MG) and 0.25 mM β-Nicotinamide adenine dinucleotide sodium salt (Sigma, Cat #N0632-5G) made in reaction buffer (50 mM Tris-HCl, pH 7.5, 0.01% Tween 20) at 10-point dose response curve for test/tool compounds. Briefly, 5 μl (4×) of compounds solution and 5 μl (final concentration, 10 nM) of enzyme solution is added to white 384 well plates and incubated for 10 mins at 37° C. 5 μl (4×) of Prostaglandin E2 and 5 μl (4×) of β-Nicotinamide adenine dinucleotide sodium salt is added to the wells and incubated for 10 mins at rt. Fluorescence is recorded at ex/em=340 nm/485 nm. The percentage (%) inhibition of enzyme activity was determined relative to […] (1% DMSO) and IC50 was calculated using GraphPad prism software (four parameter-variable slope equation).

15-PGDH/HPGD, sequence (P15428 whole entry): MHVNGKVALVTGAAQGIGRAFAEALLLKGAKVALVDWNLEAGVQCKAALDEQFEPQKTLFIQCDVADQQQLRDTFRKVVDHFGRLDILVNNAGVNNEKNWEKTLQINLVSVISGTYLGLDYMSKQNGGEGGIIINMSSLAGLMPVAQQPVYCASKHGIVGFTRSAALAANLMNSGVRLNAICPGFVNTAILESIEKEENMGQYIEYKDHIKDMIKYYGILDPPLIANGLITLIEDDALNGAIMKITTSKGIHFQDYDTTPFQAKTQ

In the case of `O=C(c1ccc2c(cnn2-c2cccc(Cl)c2)c1)N1CCCCC1` [A-93, (1-(3-chlorophenyl)-1H-indazol-5-yl)(piperidin-1-yl)methanone], the pIC50 is > 7.00.

`O=C(c1ccn2c(-c3cccc(Cl)c3)cnc2c1)N1CCCCC1` [A-94, (3-(3-chlorophenyl)imidazo[1,2-a]pyridin-7-yl)(piperidin-1-yl)methanone]: the pIC50 was > 7.00. The figure for `O=C(c1ccc2c(c1)nnn2-c1cccc(Cl)c1)N1CCCCC1` [A-95, (1-(3-chlorophenyl)-1H-benzo[d][1,2,3]triazol-5-yl)(piperidin-1-yl)methanone] is > 7.00; for `O=C(c1cnc2c(-c3cccc(Cl)c3)cnn2c1)N1CCCCC1` [A-96, (3-(3-chlorophenyl)pyrazolo[1,5-a]pyrimidin-6-yl)(piperidin-1-yl)methanone] it is > 7.00; for `Cc1c(C(=O)N2CCC(F)CC2)cnc2c1ccn2-c1cnccn1` [A-97, (4-fluoropiperidin-1-yl)(4-methyl-1-(pyrazin-2-yl)-1H-pyrrolo[2,3-b]pyridin-5-yl)methanone] it is > 7.00. Turning to `CS(=O)(=O)n1ccc2cc(C(=O)N3CCCCC3)cnc21` [A-110, (1-(methylsulfonyl)-1H-pyrrolo[2,3-b]pyridin-5-yl)(piperidin-1-yl)methanone], the pIC50 is ≤ 6.00. Regarding `Cc1ccc(S(=O)(=O)n2ccc3cc(C(=O)N4CCCCC4)cnc32)cc1` [A-111, piperidin-1-yl(1-tosyl-1H-pyrrolo[2,3-b]pyridin-5-yl)methanone], the pIC50 is ≤ 6.00.

With `O=C(c1cnc2c(ccn2-c2ccn3ccnc3c2)c1)N1CCCCC1` [A-112], the pIC50 was > 7.00. Turning to `Cc1cncc(-n2ccc3cc(C(=O)N4CCCCC4)cnc32)c1` [A-113], the pIC50 is > 7.00. For the compound `N#Cc1ccc(-n2ccc3cc(C(=O)N4CCC(F)CC4)cnc32)cc1` [A-114], the pIC50 was > 7.00. As to `N#Cc1cccc(-n2ccc3cc(C(=O)N4CCC(F)CC4)cnc32)c1` [A-115], the pIC50 was > 7.00. On to `CN(C)c1ccc(-n2ccc3cc(C(=O)N4CCCCC4)cnc32)cn1` [A-116], for which the pIC50 is > 7.00. The figure for `N#Cc1ccc(-n2ccc3cc(C(=O)N4CCCCC4)cnc32)cn1` [A-117] is > 7.00; for `N#Cc1ncc(-n2ccc3cc(C(=O)N4CCCCC4)cnc32)cn1` [A-118] it is > 7.00. For the compound `O=C(c1cnc2c(ccn2-c2ccc3[nH]ncc3c2)c1)N1CCCCC1` [A-119, (1-(1H-indazol-5-yl)-1H-pyrrolo[2,3-b]pyridin-5-yl)(piperidin-1-yl)methanone], the pIC50 is > 7.00. Consider `COc1ccc(Cn2ncc3cc(-n4ccc5cc(C(=O)N6CCCCC6)cnc54)ccc32)cc1` [A-120], for which the pIC50 is > 7.00. For the compound `COc1ccc(Cn2cc3cc(-n4ccc5cc(C(=O)N6CCCCC6)cnc54)ccc3n2)cc1` [A-121], the pIC50 was > 7.00. Regarding `NC(=O)c1ccc(-n2ccc3cc(C(=O)N4CCC(F)CC4)cnc32)cc1` [A-122], the pIC50 was > 7.00. On to `NC(=O)c1cccc(-n2ccc3cc(C(=O)N4CCC(F)CC4)cnc32)c1` [A-123], for which the pIC50 was > 7.00. In the case of `NC(=O)c1ccc(-n2ccc3cc(C(=O)N4CCCCC4)cnc32)cn1` [A-124], the pIC50 is > 7.00. In the case of `NC(=O)c1ncc(-n2ccc3cc(C(=O)N4CCCCC4)cnc32)cn1` [A-125], the pIC50 is > 7.00. As for `NC(=O)c1ccc(-n2ccc3cc(C(=O)N4CCC(F)(F)CC4)cnc32)cc1` [A-126], the figure is > 7.00; as for `O=C(c1cnc2c(ccn2-c2ccc(CO)cc2)c1)N1CCC(F)CC1` [A-127], > 7.00. As to `O=C(c1cnc2c(ccn2-c2cccc(CO)c2)c1)N1CCC(F)CC1` [A-128], the pIC50 is > 7.00. For `CC(C)(O)c1ccc(-n2ccc3cc(C(=O)N4CCCCC4)cnc32)cc1` [A-130], the pIC50 is > 7.00.

As to `COc1ccc(-n2ccc3cc(C(=O)N4CCC(c5ccccc5)CC4)cnc32)cc1` [A-134], the pIC50 was ≤ 6.00. As to `COc1ccc(-n2ccc3cc(C(=O)N4CC(c5ccccc5)C4)cnc32)cc1` [A-135], the pIC50 is ≤ 6.00. For `COc1ccc(-n2ccc3cc(C(=O)N4CCN(CC(F)(F)F)CC4)cnc32)cc1` [A-136], the pIC50 is ≤ 6.00.

`COc1ccc(-n2ccc3cc(C(=O)N4C[C@H](C)C[C@H](C)C4)cnc32)cc1` [A-138, ((3R,5S)-3,5-dimethylpiperidin-1-yl)(1-(4-methoxyphenyl)-1H-pyrrolo[2,3-b]pyridin-5-yl)methanone]: the pIC50 was > 7.00. Take `COCCNC(=O)c1ccc(-n2ccc3cc(C(=O)N4CCCCC4)cnc32)cc1` [A-139]: the pIC50 was > 7.00. As to `CNC(=O)c1ccc(-n2ccc3cc(C(=O)N4CCCCC4)cnc32)cc1` [A-140], the pIC50 is > 7.00. Regarding `CN(C)C(=O)c1ccc(-n2ccc3cc(C(=O)N4CCCCC4)cnc32)cc1` [A-141], the pIC50 is > 7.00. With `COc1ccc(-n2ccc3cc(C(=O)N4CCC(F)CC4)cnc32)cc1` [A-142], the pIC50 was > 7.00. Take `COc1cccc(-n2ccc3cc(C(=O)N4CCCCC4)cnc32)c1` [A-143]: the pIC50 was > 7.00. `O=C(c1cnc2c(ccn2-c2cncc(Cl)c2)c1)N1CCCCC1` [A-144]: the pIC50 is > 7.00. On to `COc1cncc(-n2ccc3cc(C(=O)N4CCCCC4)cnc32)c1` [A-145], for which the pIC50 was > 7.00. As for `COc1ccc(-n2ccc3cc(C(=O)N4CCCCC4)cnc32)cc1` [A-146], the figure is > 7.00; as for `N#Cc1ccc(-n2ccc3cc(C(=O)N4CCCCC4)cnc32)cc1` [A-147], > 7.00. Regarding `N#Cc1cccc(-n2ccc3cc(C(=O)N4CCCCC4)cnc32)c1` [A-148], the pIC50 was > 7.00. `CN(C)c1cccc(-n2ccc3cc(C(=O)N4CCCCC4)cnc32)c1` [A-149]: the pIC50 was > 7.00. `CN(C)c1ccc(-n2ccc3cc(C(=O)N4CCCCC4)cnc32)cc1` [A-150]: the pIC50 is > 7.00. The figure for `CCOc1ccc(-n2ccc3cc(C(=O)N4CCCCC4)cnc32)cc1` [A-151] is > 7.00; for `CS(=O)(=O)c1cccc(-n2ccc3cc(C(=O)N4CCCCC4)cnc32)c1` [A-152] it is > 7.00; for `CS(=O)(=O)c1ccc(-n2ccc3cc(C(=O)N4CCCCC4)cnc32)cc1` [A-153] it is > 7.00. In the case of `Nc1cc(-n2ccc3cc(C(=O)N4CCCCC4)cnc32)ccn1` [A-154], the pIC50 is > 7.00. `O=C(c1cnc2c(ccn2-c2ccc(O)nc2)c1)N1CCCCC1` [A-155]: the pIC50 was > 7.00.

For `Nc1cncc(-n2ccc3cc(C(=O)N4CCCCC4)cnc32)c1` [A-156], the pIC50 was > 7.00. Consider `COc1ccc(-n2ccc3cc(C(=O)N4CCCCC4)cnc32)cn1` [A-157], for which the pIC50 is > 7.00. Consider `Nc1ccc(-n2ccc3cc(C(=O)N4CCCCC4)cnc32)cn1` [A-158], for which the pIC50 was > 7.00. Regarding `NC(=O)c1ccc(-n2ccc3cc(C(=O)N4CCCCC4)cnc32)cc1` [A-159], the pIC50 was > 7.00.

`NC(=O)c1cccc(-n2ccc3cc(C(=O)N4CCCCC4)cnc32)c1` [A-160]: the pIC50 is > 7.00. For `NCc1ccc(-n2ccc3cc(C(=O)N4CCCCC4)cnc32)cc1` [A-162], the pIC50 was > 7.00.

Turning to `O=C(c1cnc2c(ccn2-c2ccc(CO)cc2)c1)N1CCCCC1` [A-163], the pIC50 is > 7.00. Turning to `O=C(c1cnc2c(ccn2-c2cccc(CO)c2)c1)N1CCCCC1` [A-164], the pIC50 is > 7.00.

For the origin of these results see patent US20230390274A1 (EPIRIUM BIO INC., priority 2020, published 2023).
